In brackets after ≈: the same amount, converted by molar mass. Entries after “also recorded” stand apart in the source; their conditions may differ. Where two headings read alike, the source gives them in different places.
Columns and labels:
Format in all cases: cell-based
[1] = test system: Staphylococcus aureus ATCC 29213; assay: MIC measured by agar dilution method, quality control strain; conditions: strain 100, MSSA QC strain
Procedure: (§1) Spontaneous mutation and minimal inhibit concentration (MIC) tested by agar dilution method, the above compounds are respectively prepared into a stock solution (100X) with a concentration 100 times the highest final concentration in corresponding solvents and used on the same day. Before use, I is further diluted with DMSO; and oxacillin, rifampicin and levofloxacin are further diluted with water.
(§2) Bacterial isolates: Staphylococcus aureus isolates are retrieved from the −80° C. storage room of Micromyx Culture Collection, thawed, plated onto Tryptic Soy Agar+5% sheep blood (Remel; Lenexa, Kans.), and then incubated aerobically at 35° C. overnight. S. aureus ATCC 29213 (MRSA; MMX 0100) was included during testing only for the purpose of quality control. Test Media: The isolates were tested in both the agar dilution MIC assay and the spontaneous mutation assay using Mueller-Hinton Agar (MHA; BD/BBL; Lot No. 6229829 & 4216798). Inocula of each isolate were suspended in cation-adjusted Mueller-Hinton Broth (CAMHB) (BD/BBL; Lot Nos. 5257869 & 6258541). Sodium chloride (Sigma-Aldrich; Lot No. SLBL0434V) was added to CAMHB at a final concentration of 2% when testing oxacillin. Dilutions of bacterial cell suspensions for the purpose of performing colony counts were also made in CAMHB.
(§3) MIC measured by agar dilution method: according to the recommendation from the Clinical and Laboratory Standards Institute (CLSI), the MIC value is measured by the agar dilution method. […] Each test agent was combined with molten MHA agar (50-55° C.) at a ratio of 0.2 mL of 100× test agent to 19.8 mL agar in a sterile tube, mixed gently, and then poured into a sterile petri plate (BD Falcon). Plates were allowed to solidify at room temperature. A 0.5 McFarland standard bacterial suspension was prepared, diluted 1:10 in CAMHB, and transferred to the wells of a stainless steel replicator block before stamping onto plates containing drug, resulting in 10^4 CFU/spot. After allowing the inoculum to dry on the surface of the agar, the plates were inverted, incubated aerobically at 35° C. for 20-24 hr, and inspected for growth.
In parallel experiments, a standard bacterium suspension with a […] turbidity of 0.5 is prepared as a standard inoculum for agar dilution analysis (10^4 CFU/point). […] In this step, the broths and drugs used in the spontaneous mutation analysis are used to confirm that the concentration of the drug stock solution can inhibit the growth of the standard inoculum. The quality of the levofloxacin stock solution is controlled by a standard inoculum and levofloxacin of 8-0.008 μg/mL, and separate agar dilution analysis is performed. […]

[2] = test system: methicillin-resistant Staphylococcus aureus (MRSA) isolates; assay: MIC measured by agar dilution method (CLSI); conditions: Staphylococcus aureus, MRSA, agar dilution
Procedure: as §1, §2, §3

[3] = test system: Staphylococcus aureus ATCC 29213; assay: MIC measured by fluid broth microdilution method (quality control); conditions: ATCC29213
[4] = test system: Staphylococcus aureus MMX 3265, 3270, 3278, and 6312; conditions: for Cell counts (mean): 1 used if no colonies
Procedure: Each test agent stock solution was prepared at 100× the final desired test concentration for the spontaneous mutation frequency assay agar plates.
The drug/agar mixture was dispensed into sterile 150×15 mm plates (BD Falcon) to a volume of 50 mL in each plate. The target inoculum for each spontaneous mutation plate was at least 10^9 CFU. Plates were allowed to solidify at room temperature.
The inocula for the spontaneous mutation frequency assay were prepared by using sterile cotton swabs to harvest colonies from freshly grown isolates and preparing a dense cell suspension (approximately 1.70 on the turbidity meter) in 6 mL of CAMHB. The viable count of this suspension was determined by plating serial ten-fold dilutions onto MHA and taking the average of duplicate counts. For the spontaneous mutation assay, 0.25 mL of inoculum was spread onto the surface of duplicate 150×15 mm plates for each drug concentration tested, allowed to dry, and then the plates were inverted and incubated at 35° C. for 48 hr prior to counting viable colonies. The spontaneous mutation frequency was calculated using the following equation:
Spontaneous mutation frequency=average number of colonies on selected plates/total number of cells incubated onto each plate
If there were no colonies on the antibiotic selection plates, the spontaneous mutation frequency was reported as less than or equal to the mutation frequency that would have resulted from the presence of one colony (e.g. 1/total number of cells inoculated onto the plate).

[5] = isolate 3265 LEV^R RIF^S, drug 0.5 μg/mL in plates (combination 0.5 each), inoculation 5.40E+09 CFU
[6] = isolate 3265 LEV^R RIF^S, drug 2 μg/mL in plates (combination 2 each), inoculation 5.40E+09 CFU
[7] = isolate 3265 LEV^R RIF^S, drug 8 μg/mL in plates (combination 8 each), inoculation 5.40E+09 CFU
[8] = isolate 3270 LEV^R RIF^S, drug 0.5 μg/mL in plates (combination 0.5 each), inoculation 5.30E+09 CFU
[9] = isolate 3270 LEV^R RIF^S, drug 2 μg/mL in plates (combination 2 each), inoculation 5.30E+09 CFU
[10] = isolate 3270 LEV^R RIF^S, drug 8 μg/mL in plates (combination 8 each), inoculation 5.30E+09 CFU
[11] = isolate 3278 LEV^S RIF^S, drug 0.5 μg/mL in plates (combination 0.5 each), inoculation 3.80E+09 CFU
[12] = isolate 3278 LEV^S RIF^S, drug 2 μg/mL in plates (combination 2 each), inoculation 3.80E+09 CFU
[13] = isolate 3278 LEV^S RIF^S, drug 8 μg/mL in plates (combination 8 each), inoculation 3.80E+09 CFU
[14] = isolate 6312 LEV^R RIF^S, drug 0.5 μg/mL in plates (combination 0.5 each), inoculation 3.90E+09 CFU
[15] = isolate 6312 LEV^R RIF^S, drug 2 μg/mL in plates (combination 2 each), inoculation 3.90E+09 CFU
[16] = isolate 6312 LEV^R RIF^S, drug 8 μg/mL in plates (combination 8 each), inoculation 3.90E+09 CFU

CO[C@H]1/C=C/O[C@@]2(C)Oc3c(C)c(O)c4c(O)c(c(/C=N/N5CCC(N(C)C6([C@@H]7CCN(c8c(F)cn9c(=O)c(C(=O)O)cc(C%10CC%10)c9c8C)C7)CC6)CC5)c(O)c4c3C2=O)NC(=O)/C(C)=C\C=C\[C@H](C)[C@H](O)[C@@H](C)[C@@H](O)[C@@H](C)[C@H](OC(C)=O)[C@@H]1C [I]
MIC [1]: 0.015 µg/mL (≈ 0.0124 µM) | MIC ([2]; read-out: MIC over all strains under test, 23 MRSA isolates): 0.015 µg/mL (≈ 0.0124 µM) | MIC ([2]; strain 3085, LEV^S RIF^S): 0.015 µg/mL (≈ 0.0124 µM) | MIC ([2]; strain 3090, LEV^R RIF^S): 0.015 µg/mL (≈ 0.0124 µM) | MIC ([2]; strain 3094, LEV^R RIF^S): 0.015 µg/mL (≈ 0.0124 µM) | MIC ([2]; strain 3098, LEV^S RIF^S): 0.015 µg/mL (≈ 0.0124 µM) | MIC ([2]; strain 3265, LEV^R RIF^S): 0.015 µg/mL (≈ 0.0124 µM) | MIC ([2]; strain 3266, LEVR RIFS): 0.015 µg/mL (≈ 0.0124 µM) | MIC ([2]; strain 3270, LEV^R RIF^S): 0.015 µg/mL (≈ 0.0124 µM) | MIC ([2]; strain 3271, LEV^R RIF^S): 0.015 µg/mL (≈ 0.0124 µM) | MIC ([2]; strain 3277, LEV^S RIF^S): 0.015 µg/mL (≈ 0.0124 µM) | MIC ([2]; strain 3278, LEV^S RIF^S): 0.015 µg/mL (≈ 0.0124 µM) | MIC ([2]; strain 6312, LEV^R RIF^S): 0.015 µg/mL (≈ 0.0124 µM) | MIC ([2]; strain 6313, LEV^R RIF^S): 0.015 µg/mL (≈ 0.0124 µM) | MIC ([2]; strain 6315, LEV^R RIF^S): 0.015 µg/mL (≈ 0.0124 µM) | MIC ([2]; strain 6498, LEV^R RIF^S): 0.015 µg/mL (≈ 0.0124 µM) | MIC ([2]; strain 6501, LEV^R RIF^S): 0.015 µg/mL (≈ 0.0124 µM) | MIC ([2]; strain 6505, LEV^R RIF^S): 0.015 µg/mL (≈ 0.0124 µM) | MIC ([2]; strain 7771, LEV^R RIF^S): 0.015 µg/mL (≈ 0.0124 µM) | MIC ([2]; strain 7772, LEV^S RIF^S): 0.015 µg/mL (≈ 0.0124 µM) | MIC ([2]; strain 7773, LEV^R RIF^S): 0.015 µg/mL (≈ 0.0124 µM) | MIC ([2]; strain 7774, LEV^R RIF^S): 0.015 µg/mL (≈ 0.0124 µM) | MIC ([2]; strain 7775, LEV^R): 0.015 µg/mL (≈ 0.0124 µM) | MIC [3]: 0.25 µg/mL (≈ 0.207 µM) | spontaneous mutants / development of drug resistance (in words) ([4]; four MRSA isolates, 0.5, 2 or 8 μg/mL): No spontaneous mutants are recovered; also recorded: none of the four MRSA strains under test develops drug resistance | Cell counts (mean) ([4]; isolate 3265, drug 0.5 μg/mL): 1^1 | Cell counts (mean) ([4]; isolate 3265, drug 2 μg/mL): 1 | Cell counts (mean) ([4]; isolate 3265, drug 8 μg/mL): 1 | Cell counts plate A [4, 5]: 0 | Cell counts plate B [4, 5]: 0 | Mutation frequency [4, 5]: <1.85E−10 | Cell counts plate A [4, 6]: 0 | Cell counts plate B [4, 6]: 0 | Mutation frequency [4, 6]: <1.85E−10 | Cell counts plate A [4, 7]: 0 | Cell counts plate B [4, 7]: 0 | Mutation frequency [4, 7]: <1.85E−10 | Cell counts (mean) ([4]; isolate 3270, drug 0.5 μg/mL): 1 | Cell counts (mean) ([4]; isolate 3270, drug 2 μg/mL): 1 | Cell counts (mean) ([4]; isolate 3270, drug 8 μg/mL): 1 | Cell counts plate A [4, 8]: 0 | Cell counts plate B [4, 8]: 0 | Mutation frequency [4, 8]: <1.89E−10 | Cell counts plate A [4, 9]: 0 | Cell counts plate B [4, 9]: 0 | Mutation frequency [4, 9]: <1.89E−10 | Cell counts plate A [4, 10]: 0 | Cell counts plate B [4, 10]: 0 | Mutation frequency [4, 10]: <1.89E−10 | Cell counts (mean) ([4]; isolate 3278, drug 0.5 μg/mL): 1 | Cell counts (mean) ([4]; isolate 3278, drug 2 μg/mL): 1 | Cell counts (mean) ([4]; isolate 3278, drug 8 μg/mL): 1 | Cell counts plate A [4, 11]: 0 | Cell counts plate B [4, 11]: 0 | Mutation frequency [4, 11]: <2.63E−10 | Cell counts plate A [4, 12]: 0 | Cell counts plate B [4, 12]: 0 | Mutation frequency [4, 12]: <2.63E−10 | Cell counts plate A [4, 13]: 0 | Cell counts plate B [4, 13]: 0 | Mutation frequency [4, 13]: <2.63E−10 | Cell counts (mean) ([4]; isolate 6312, drug 0.5 μg/mL): 1 | Cell counts (mean) ([4]; isolate 6312, drug 2 μg/mL): 1 | Cell counts (mean) ([4]; isolate 6312, drug 8 μg/mL): 1 | Cell counts plate A [4, 14]: 0 | Cell counts plate B [4, 14]: 0 | Mutation frequency [4, 14]: <2.56E−10 | Cell counts plate A [4, 15]: 0 | Cell counts plate B [4, 15]: 0 | Mutation frequency [4, 15]: <2.56E−10 | Cell counts plate A [4, 16]: 0 | Cell counts plate B [4, 16]: 0 | Mutation frequency [4, 16]: <2.56E−10

From patent US20220087990A1, “APPLICATION OF RIFAMYCIN-QUINOLIZIDONE CONJUGATE MOLECULE AND PHARMACEUTICALLY ACCEPTABLE SALT THEREOF” (priority 2019, published 2022)
